The text below walks through data of patent US8697724B2, “Crystalline oxalate salts of a diamide compound” (Theravance, Inc., priority 2010, dated 2014).

Structures can show the parent of a compound that is named as a salt.

A short description of data set [1]: Dynamic moisture sorption (DMS) assessment. The class given is physicochemical. How it is done: A dynamic moisture sorption (DMS) assessment (also known as a moisture sorption-desorption profile) was performed for a sample of Form 2 using a VTI atmospheric microbalance, SGA-100 system (VTI Corp., Hialeah, Fla. 33016). A sample size of approximately 10 mg was used and the humidity was set at the ambient value at the start of the analysis. A typical DMS analysis consisted of three scans: ambient to 5% relative humidity (RH), 5% RH to 90% RH, 90% RH to 5% RH at a scan rate of 5% RH/step. The mass was measured every two minutes and the RH was changed to the next value (+/−5% RH) when the mass of the sample was stable to within 0.01% for 5 consecutive points.

The subject of data set [2] is methacholine (MCh)-induced bronchoconstriction. The data set can be described thus: Einthoven assay: bronchoprotection against methacholine-induced bronchoconstriction. The class given is in vivo, rat. The settings on record: male Sprague-Dawley rats, inhalation, 100 μg, at 24 h. How it is done:
This assay measures the ability of a test compound to provide bronchoprotection against methacholine (MCh)-induced bronchoconstriction in a rat.
Male Sprague-Dawley rats (Harlan, Indianapolis, Ind.), weighing between 200 g and 350 g, were used for all studies.
Test compound or vehicle (sterile deionized water) were dosed by inhalation (IH) over a 10 min period in a pie shaped inhalation chamber (R+S Molds, San Carlos, Calif.) using 5 mL of dosing solution. Rats were exposed to an aerosol, which was generated from an LC Star Nebulizer Set Model 22F51 (PARI Respiratory Equipment, Inc. Midlothian, Va.) driven by Bioblend (5% CO2/95% atmospheric air) at a pressure of 22 psi. Rats were dosed with 100 μg of test compound unless otherwise indicated.
At predetermined time points, rats were anesthetized with an intraperitoneal (IP) injection of 120 mg/kg inactin (thiobutabarbital). A supplemental dose (40 mg/kg, IP) was administered if the animal responded to physical stimuli (e.g. toe pinch). The surgical site was shaved and a 1-2 cm midline incision of the ventral aspect of the neck was made. […]
Changes in VP were recorded using the Acknowledge Data Collection Software (Santa Barbara, Calif.). […] Changes in ventilation pressure (cm H2O) in treated animals are expressed as % inhibition of MCh response relative to control animals.

The nature of data set [3]: Differential scanning calorimetry (thermal stability). The class given is physicochemical. The settings on record: DSC traces, 10° C./min. How it is done:
Differential scanning calorimetry (DSC) was performed using a TA Instruments Model Q-100 module with a Thermal Analyst controller. Data were collected and analyzed using TA Instruments Thermal Solutions software. A sample of about 2 mg was accurately weighed into an aluminum pan with lid. The sample was evaluated using a linear heating ramp of 10° C./min from ambient temperature to approximately 300° C. The DSC cell was purged with dry nitrogen during use. Representative DSC traces for Form 1 and Form 2 are shown in FIG. 2 and FIG. 5, respectively.
On the technique in general: DSC measures the heat that a sample takes up or gives off during a temperature scan.

Where [4] appears, read: reversible moisture sorption/desorption profile.

Consider `CN(CCCCC(=O)Nc1ccc(CNC[C@H](O)c2ccc(O)c3[nH]c(=O)ccc23)cc1)C(=O)CCN1CCC(OC(=O)Nc2ccccc2-c2ccccc2)CC1` [Form 2, Biphenyl-2-ylcarbamic Acid 1-(2-{[4-(4-{[(R)-2-Hydroxy-2-(8-hydroxy-2-oxo-1,2-dihydroquinolin-5-yl)ethylamino]methyl}-phenylcarbamoyl)butyl]methylcarbamoyl}ethyl)piperidin-4-yl Ester Oxalate Hydrate Salt (Form 2)], for which the “change in physical form during moisture sorption and desorption (PXRD before and after DMS)” value in data set [1] (PXRD profiles before and after the DMS experiment) is reported as “no change in physical form occurred”. The “weight gain (moisture sorption)” value in data set [1] (humidity range of 5% RH to 90% RH) was “about 1.6 weight %”. Moreover, in data set [1] (setting [4]), the deliquescence result is “not deliquescent” and the hygroscopicity result was “acceptable hygroscopicity”.
Regarding `CN(CCCCC(=O)Nc1ccc(CNC[C@H](O)c2ccc(O)c3[nH]c(=O)ccc23)cc1)C(=O)CCN1CCC(OC(=O)Nc2ccccc2-c2ccccc2)CC1` [Biphenyl-2-ylcarbamic Acid 1-(2-{[4-(4-{[(R)-2-hydroxy-2-(8-hydroxy-2-oxo-1,2-dihydroquinolin-5-yl)ethylamino]methyl}phenylcarbamoyl)-butyl]methylcarbamoyl}ethyl)piperidin-4-yl Ester Ditrifluoroacetic Acid Salt], the “% inhibition of MCh response” value in data set [2] is listed as “at least 40%”.
In the case of `CN(CCCCC(=O)Nc1ccc(CNC[C@H](O)c2ccc(O)c3[nH]c(=O)ccc23)cc1)C(=O)CCN1CCC(OC(=O)Nc2ccccc2-c2ccccc2)CC1` [Form 1, Biphenyl-2-ylcarbamic Acid 1-(2-{[4-(4-{[(R)-2-Hydroxy-2-(8-hydroxy-2-oxo-1,2-dihydroquinolin-5-yl)ethylamino]methyl}-phenylcarbamoyl)butyl]methylcarbamoyl}ethyl)piperidin-4-yl Ester Oxalate Isopropanol Solvate Salt (Form 1)], the thermal stability result in data set [3] is “excellent thermal stability”.
